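Following 48 hours of exposure in 96-well plates, responses at five concentrations were used to interpolate endpoints linearly. GI50 is the concentration that inhibits growth by half. TGI: total growth inhibition.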
Legend:
Assay in all cases: NCI tumour cell line growth inhibition, 48 h
NCI-H23 lung = test system: NCI-H23 lung
OVCAR-5 ovarian = test system: OVCAR-5 ovarian
HCT-15 colon = test system: HCT-15 colon
SF-539 CNS = test system: SF-539 CNS
UO-31 renal = test system: UO-31 renal
HT29 colon = test system: HT29 colon
MALME-3M melanoma = test system: MALME-3M melanoma
SK-MEL-5 melanoma = test system: SK-MEL-5 melanoma
HS 578T breast = test system: HS 578T breast
SF-295 CNS = test system: SF-295 CNS
HCT-116 colon = test system: HCT-116 colon
RXF 393 renal = test system: RXF 393 renal
HOP-62 NSCLC = test system: HOP-62 NSCLC
COLO 205 colon = test system: COLO 205 colon
CAKI-1 renal = test system: CAKI-1 renal
KM12 colon = test system: KM12 colon
SK-MEL-28 melanoma = test system: SK-MEL-28 melanoma
NCI-H460 lung = test system: NCI-H460 lung
SNB-75 CNS = test system: SNB-75 CNS
A498 renal = test system: A498 renal
SK-OV-3 ovarian = test system: SK-OV-3 ovarian
SF-268 CNS = test system: SF-268 CNS
CCRF-CEM leukemia = test system: CCRF-CEM leukemia
MCF7 breast = test system: MCF7 breast
786-0 renal = test system: 786-0 renal
BT-549 breast = test system: BT-549 breast
ACHN renal = test system: ACHN renal
U251 CNS = test system: U251 CNS
NCI-H226 lung = test system: NCI-H226 lung
HCC-2998 colon = test system: HCC-2998 colon
K-562 leukemia = test system: K-562 leukemia
MDA-MB-435 = test system: MDA-MB-435
UACC-257 melanoma = test system: UACC-257 melanoma
DU-145 prostate = test system: DU-145 prostate
OVCAR-4 ovarian = test system: OVCAR-4 ovarian
SR leukemia = test system: SR leukemia
SN12C renal = test system: SN12C renal
T-47D breast = test system: T-47D breast
IGROV1 ovarian = test system: IGROV1 ovarian
RPMI-8226 leukemia = test system: RPMI-8226 leukemia
LOX IMVI melanoma = test system: LOX IMVI melanoma
PC-3 prostate = test system: PC-3 prostate
SW-620 colon = test system: SW-620 colon
M14 melanoma = test system: M14 melanoma
OVCAR-3 ovarian = test system: OVCAR-3 ovarian
OVCAR-8 ovarian = test system: OVCAR-8 ovarian
MDA-MB-231 breast = test system: MDA-MB-231 breast
EKVX NSCLC = test system: EKVX NSCLC
SNB-19 CNS = test system: SNB-19 CNS
MOLT-4 leukemia = test system: MOLT-4 leukemia
NCI/ADR-RES ovarian = test system: NCI/ADR-RES ovarian
HOP-92 NSCLC = test system: HOP-92 NSCLC
UACC-62 melanoma = test system: UACC-62 melanoma

`Nc1nc(SCc2ccccc2CCl)c2[nH]cnc2n1` showed a GI50 (NCI-H23 lung) of 15.7 µM, a TGI (NCI-H23 lung) of 36.5 µM and a GI50 (OVCAR-5 ovarian) of 18.9 µM. For the same compound, the TGI (OVCAR-5 ovarian) was 34.6 µM, the GI50 (HCT-15 colon) was 14.5 µM and the TGI (HCT-15 colon) was 31.1 µM. It also gave a GI50 (SF-539 CNS) of 21.9 µM, a TGI (SF-539 CNS) of 54 µM and a GI50 (UO-31 renal) of 10.5 µM. It also gave a TGI (UO-31 renal) of 71.9 µM, a GI50 (HT29 colon) of 17.1 µM and a TGI (HT29 colon) of 35.6 µM. The GI50 (MALME-3M melanoma) was 12.5 µM, the TGI (MALME-3M melanoma) was 28.8 µM and the GI50 (SK-MEL-5 melanoma) was 10.8 µM. It also gave a TGI (SK-MEL-5 melanoma) of 23.7 µM, a GI50 (HS 578T breast) of 18.3 µM and a TGI (HS 578T breast) of 97.2 µM. For the same compound, the GI50 (SF-295 CNS) was 18.7 µM, the TGI (SF-295 CNS) was 56 µM and the GI50 (HCT-116 colon) was 16.2 µM. The TGI (HCT-116 colon) was 33.8 µM, the GI50 (RXF 393 renal) was 14 µM and the TGI (RXF 393 renal) was 28.7 µM. It also gave a GI50 (HOP-62 NSCLC) of 17 µM, a TGI (HOP-62 NSCLC) of 33.2 µM and a GI50 (COLO 205 colon) of 16.2 µM. For the same compound, the TGI (COLO 205 colon) was 36.1 µM, the GI50 (CAKI-1 renal) was 15.6 µM and the TGI (CAKI-1 renal) was 44 µM. For the same compound, the GI50 (KM12 colon) was 14.8 µM, the TGI (KM12 colon) was 28.1 µM and the GI50 (SK-MEL-28 melanoma) was 17.7 µM. The TGI (SK-MEL-28 melanoma) was 49.7 µM, the GI50 (NCI-H460 lung) was 15.2 µM and the TGI (NCI-H460 lung) was 30.9 µM. For the same compound, the GI50 (SNB-75 CNS) was 15.3 µM, the TGI (SNB-75 CNS) was 32.7 µM and the GI50 (A498 renal) was 11.7 µM. It also gave a TGI (A498 renal) of 25.8 µM, a GI50 (SK-OV-3 ovarian) of 16 µM and a TGI (SK-OV-3 ovarian) of 32.2 µM. For the same compound, the GI50 (SF-268 CNS) was 12.6 µM, the TGI (SF-268 CNS) was 25.6 µM and the GI50 (CCRF-CEM leukemia) was 28.5 µM. The TGI (CCRF-CEM leukemia) was greater than 100 µM, the GI50 (MCF7 breast) was 12.2 µM and the TGI (MCF7 breast) was 28.4 µM. It also gave a GI50 (786-0 renal) of 17.6 µM, a TGI (786-0 renal) of 40.3 µM and a GI50 (BT-549 breast) of 13.7 µM. The TGI (BT-549 breast) was 29.6 µM, the GI50 (ACHN renal) was 18.6 µM and the TGI (ACHN renal) was 74.6 µM. It also gave a GI50 (U251 CNS) of 13.1 µM, a TGI (U251 CNS) of 27.3 µM and a GI50 (NCI-H226 lung) of 17.1 µM. It also gave a TGI (NCI-H226 lung) of 34.4 µM, a GI50 (HCC-2998 colon) of 18.8 µM and a TGI (HCC-2998 colon) of 33.3 µM. The GI50 (K-562 leukemia) was 32.4 µM, the TGI (K-562 leukemia) was greater than 100 µM and the GI50 (MDA-MB-435) was 12.8 µM. The TGI (MDA-MB-435) was 25.7 µM, the GI50 (UACC-257 melanoma) was 14.5 µM and the TGI (UACC-257 melanoma) was 32.9 µM. For the same compound, the GI50 (DU-145 prostate) was 16.3 µM, the TGI (DU-145 prostate) was 41.7 µM and the GI50 (OVCAR-4 ovarian) was 13.2 µM. For the same compound, the TGI (OVCAR-4 ovarian) was 37.3 µM, the GI50 (SR leukemia) was 24.8 µM and the TGI (SR leukemia) was greater than 100 µM. For the same compound, the GI50 (SN12C renal) was 21.2 µM, the TGI (SN12C renal) was 71.7 µM and the GI50 (T-47D breast) was 15.6 µM. The TGI (T-47D breast) was 52.3 µM, the GI50 (IGROV1 ovarian) was 14.5 µM and the TGI (IGROV1 ovarian) was 47.9 µM. The GI50 (RPMI-8226 leukemia) was 31.9 µM, the TGI (RPMI-8226 leukemia) was greater than 100 µM and the GI50 (LOX IMVI melanoma) was 12.7 µM. For the same compound, the TGI (LOX IMVI melanoma) was 26.9 µM, the GI50 (PC-3 prostate) was 25.1 µM and the TGI (PC-3 prostate) was greater than 100 µM. The GI50 (SW-620 colon) was 14.8 µM, the TGI (SW-620 colon) was 29.2 µM and the GI50 (M14 melanoma) was 17.8 µM. For the same compound, the TGI (M14 melanoma) was 52.8 µM, the GI50 (OVCAR-3 ovarian) was 14.6 µM and the TGI (OVCAR-3 ovarian) was 28.9 µM. The GI50 (OVCAR-8 ovarian) was 28.2 µM, the TGI (OVCAR-8 ovarian) was greater than 100 µM and the GI50 (MDA-MB-231 breast) was 14.2 µM. For the same compound, the TGI (MDA-MB-231 breast) was 38 µM, the GI50 (EKVX NSCLC) was 12.9 µM and the TGI (EKVX NSCLC) was 25.9 µM. It also gave a GI50 (SNB-19 CNS) of 15.8 µM, a TGI (SNB-19 CNS) of 35.5 µM and a GI50 (MOLT-4 leukemia) of 21.4 µM. It also gave a TGI (MOLT-4 leukemia) greater than 100 µM, a GI50 (NCI/ADR-RES ovarian) of 20.9 µM and a TGI (NCI/ADR-RES ovarian) of 67.7 µM. For the same compound, the GI50 (HOP-92 NSCLC) was 20 µM, the TGI (HOP-92 NSCLC) was 67.8 µM and the GI50 (UACC-62 melanoma) was 14.3 µM. The TGI (UACC-62 melanoma) was 30.1 µM.

— PubChem BioAssay (NCI)
